# Test results reported in PubChem BioAssay (NCI).
#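 Abbreviation: GI50, concentration required for 50% inhibition of growth. TGI denotes the concentration required for complete inhibition of growth.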
# Key:
# Test in all cases: NCI-60 cell line screen, 384-well format
# 786-0 renal = system: 786-0 renal
# A498 renal = system: A498 renal
# A549 NSCLC = system: A549 NSCLC
# BT-549 breast = system: BT-549 breast
# CAKI-1 renal = system: CAKI-1 renal
# CCRF-CEM leukemia = system: CCRF-CEM leukemia
# COLO 205 colon = system: COLO 205 colon
# DU-145 prostate = system: DU-145 prostate
# EKVX NSCLC = system: EKVX NSCLC
# HCC-2998 colon = system: HCC-2998 colon
# HL-60(TB) leukemia = system: HL-60(TB) leukemia
# HOP-62 NSCLC = system: HOP-62 NSCLC
# HOP-92 NSCLC = system: HOP-92 NSCLC
# HS 578T breast = system: HS 578T breast
# HT29 colon = system: HT29 colon
# IGROV1 ovarian = system: IGROV1 ovarian
# KM12 colon = system: KM12 colon
# LOX IMVI melanoma = system: LOX IMVI melanoma
# M14 melanoma = system: M14 melanoma
# MALME-3M melanoma = system: MALME-3M melanoma
# MCF7 breast = system: MCF7 breast
# MDA-MB-231 breast = system: MDA-MB-231 breast
# MDA-MB-435 melanoma = system: MDA-MB-435 melanoma
# MDA-MB-468 breast = system: MDA-MB-468 breast
# MOLT-4 leukemia = system: MOLT-4 leukemia
# NCI-H226 lung = system: NCI-H226 lung
# NCI-H23 lung = system: NCI-H23 lung
# NCI-H460 NSCLC = system: NCI-H460 NSCLC
# NCI-H522 lung = system: NCI-H522 lung
# NCI/ADR-RES ovarian = system: NCI/ADR-RES ovarian
# OVCAR-4 ovarian = system: OVCAR-4 ovarian
# OVCAR-5 ovarian = system: OVCAR-5 ovarian
# OVCAR-8 ovarian = system: OVCAR-8 ovarian
# PC-3 prostate = system: PC-3 prostate
# RPMI-8226 leukemia = system: RPMI-8226 leukemia
# RXF 393 renal = system: RXF 393 renal
# SF-268 CNS = system: SF-268 CNS
# SF-295 CNS = system: SF-295 CNS
# SF-539 CNS = system: SF-539 CNS
# SK-MEL-28 melanoma = system: SK-MEL-28 melanoma
# SK-MEL-5 melanoma = system: SK-MEL-5 melanoma
# SK-OV-3 ovarian = system: SK-OV-3 ovarian
# SN12C renal = system: SN12C renal
# SNB-19 CNS = system: SNB-19 CNS
# SNB-75 CNS = system: SNB-75 CNS
# SR leukemia = system: SR leukemia
# SW-620 colon = system: SW-620 colon
# T-47D breast = system: T-47D breast
# TK-10 renal = system: TK-10 renal
# UACC-257 melanoma = system: UACC-257 melanoma
# UO-31 renal = system: UO-31 renal
smiles,measurement,setting,value
N[C@@H]1CCCN(c2c(Br)cnc3[nH]cc(NC(=O)C4CC4)c23)C1,GI50,786-0 renal,26.8 nM
same,TGI,786-0 renal,78.9 nM
same,GI50,A498 renal,12 nM
same,TGI,A498 renal,31.2 nM
same,GI50,A549 NSCLC,303 nM
same,TGI,A549 NSCLC,> 100000 nM
same,GI50,BT-549 breast,18.6 nM
same,TGI,BT-549 breast,42.7 nM
same,GI50,CAKI-1 renal,361 nM
same,TGI,CAKI-1 renal,14200 nM
same,GI50,CCRF-CEM leukemia,19 nM
same,TGI,CCRF-CEM leukemia,37.5 nM
same,GI50,COLO 205 colon,269 nM
same,TGI,COLO 205 colon,2690 nM
same,GI50,DU-145 prostate,172 nM
same,TGI,DU-145 prostate,> 100000 nM
same,GI50,EKVX NSCLC,184 nM
same,TGI,EKVX NSCLC,> 100000 nM
same,GI50,HCC-2998 colon,15.3 nM
same,TGI,HCC-2998 colon,45.5 nM
same,GI50,HL-60(TB) leukemia,18 nM
same,TGI,HL-60(TB) leukemia,35.4 nM
same,GI50,HOP-62 NSCLC,36.5 nM
same,TGI,HOP-62 NSCLC,202 nM
same,GI50,HOP-92 NSCLC,19.2 nM
same,TGI,HOP-92 NSCLC,57.7 nM
same,GI50,HS 578T breast,14.3 nM
same,TGI,HS 578T breast,41 nM
same,GI50,HT29 colon,197 nM
same,TGI,HT29 colon,524 nM
same,GI50,IGROV1 ovarian,61.1 nM
same,TGI,IGROV1 ovarian,> 100000 nM
same,GI50,KM12 colon,57.4 nM
same,TGI,KM12 colon,> 100000 nM
same,GI50,LOX IMVI melanoma,276 nM
same,TGI,LOX IMVI melanoma,1870 nM
same,GI50,M14 melanoma,19.1 nM
same,TGI,M14 melanoma,41.7 nM
same,GI50,MALME-3M melanoma,23.4 nM
same,TGI,MALME-3M melanoma,219 nM
same,GI50,MCF7 breast,25.1 nM
same,TGI,MCF7 breast,> 100000 nM
same,GI50,MDA-MB-231 breast,318 nM
same,TGI,MDA-MB-231 breast,18300 nM
same,GI50,MDA-MB-435 melanoma,30.5 nM
same,TGI,MDA-MB-435 melanoma,124 nM
same,GI50,MDA-MB-468 breast,20 nM
same,TGI,MDA-MB-468 breast,76 nM
same,GI50,MOLT-4 leukemia,14.1 nM
same,TGI,MOLT-4 leukemia,27.8 nM
same,GI50,NCI-H226 lung,7470 nM
same,TGI,NCI-H226 lung,56100 nM
same,GI50,NCI-H23 lung,21 nM
same,TGI,NCI-H23 lung,69.5 nM
same,GI50,NCI-H460 NSCLC,118 nM
same,TGI,NCI-H460 NSCLC,1500 nM
same,GI50,NCI-H522 lung,1510 nM
same,TGI,NCI-H522 lung,9610 nM
same,GI50,NCI/ADR-RES ovarian,51.7 nM
same,TGI,NCI/ADR-RES ovarian,197 nM
same,GI50,OVCAR-4 ovarian,17.7 nM
same,TGI,OVCAR-4 ovarian,44.8 nM
same,GI50,OVCAR-5 ovarian,79.4 nM
same,TGI,OVCAR-5 ovarian,433 nM
same,GI50,OVCAR-8 ovarian,28.7 nM
same,TGI,OVCAR-8 ovarian,112 nM
same,GI50,PC-3 prostate,11800 nM
same,TGI,PC-3 prostate,65600 nM
same,GI50,RPMI-8226 leukemia,18.7 nM
same,TGI,RPMI-8226 leukemia,97.9 nM
same,GI50,RXF 393 renal,20.7 nM
same,TGI,RXF 393 renal,45.5 nM
same,GI50,SF-268 CNS,241 nM
same,TGI,SF-268 CNS,> 100000 nM
same,GI50,SF-295 CNS,23.5 nM
same,TGI,SF-295 CNS,68.8 nM
same,GI50,SF-539 CNS,17.4 nM
same,TGI,SF-539 CNS,35.8 nM
same,GI50,SK-MEL-28 melanoma,244 nM
same,TGI,SK-MEL-28 melanoma,> 100000 nM
same,GI50,SK-MEL-5 melanoma,27.7 nM
same,TGI,SK-MEL-5 melanoma,128 nM
same,GI50,SK-OV-3 ovarian,34.2 nM
same,TGI,SK-OV-3 ovarian,162 nM
same,GI50,SN12C renal,450 nM
same,TGI,SN12C renal,4270 nM
same,GI50,SNB-19 CNS,220 nM
same,TGI,SNB-19 CNS,> 100000 nM
same,GI50,SNB-75 CNS,262 nM
same,TGI,SNB-75 CNS,4580 nM
same,GI50,SR leukemia,15.1 nM
same,TGI,SR leukemia,29.4 nM
same,GI50,SW-620 colon,379 nM
same,TGI,SW-620 colon,36400 nM
same,GI50,T-47D breast,> 100000 nM
same,TGI,T-47D breast,> 100000 nM
same,GI50,TK-10 renal,24.2 nM
same,TGI,TK-10 renal,64.7 nM
same,GI50,UACC-257 melanoma,368 nM
same,TGI,UACC-257 melanoma,> 100000 nM
same,GI50,UO-31 renal,52.7 nM
same,TGI,UO-31 renal,> 100000 nM
